We go through 9 compounds from patent publication US9493478B2, “Fused ring compound containing furan or salt thereof and pharmaceutical composition comprising same” (YUHAN CORPORATION, priority 2012, dated 2016).

Format in all cases: biochemical
The target of assay [1] is PI3Kγ (p120γ)(h) (Homo sapiens, UniProt P48736). Briefly: Assay for phosphatidylinositol 3-kinase gamma (PI3Kγ) activity, PI3K-HTRF kit. To be noted: TR-FRET; enzyme 1.45 μg/ml, 10 μM PIP2, 10 μM ATP. An outline of the steps: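 Recombinant PI3Kγ (1.45 μg/ml final) preincubated ~10 min with compound, then reacted with 10 μM PIP2 and 10 μM ATP for 90 min at room temperature. PIP3 detected by HTRF (biotin-PIP3/Eu-PH domain/APC), 665/620 nm ratio after 6 h; IC50 from inhibition relative to controls.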
PI3Kγ (p120γ)(h), sequence (P48736 whole entry, the tested form may be a part): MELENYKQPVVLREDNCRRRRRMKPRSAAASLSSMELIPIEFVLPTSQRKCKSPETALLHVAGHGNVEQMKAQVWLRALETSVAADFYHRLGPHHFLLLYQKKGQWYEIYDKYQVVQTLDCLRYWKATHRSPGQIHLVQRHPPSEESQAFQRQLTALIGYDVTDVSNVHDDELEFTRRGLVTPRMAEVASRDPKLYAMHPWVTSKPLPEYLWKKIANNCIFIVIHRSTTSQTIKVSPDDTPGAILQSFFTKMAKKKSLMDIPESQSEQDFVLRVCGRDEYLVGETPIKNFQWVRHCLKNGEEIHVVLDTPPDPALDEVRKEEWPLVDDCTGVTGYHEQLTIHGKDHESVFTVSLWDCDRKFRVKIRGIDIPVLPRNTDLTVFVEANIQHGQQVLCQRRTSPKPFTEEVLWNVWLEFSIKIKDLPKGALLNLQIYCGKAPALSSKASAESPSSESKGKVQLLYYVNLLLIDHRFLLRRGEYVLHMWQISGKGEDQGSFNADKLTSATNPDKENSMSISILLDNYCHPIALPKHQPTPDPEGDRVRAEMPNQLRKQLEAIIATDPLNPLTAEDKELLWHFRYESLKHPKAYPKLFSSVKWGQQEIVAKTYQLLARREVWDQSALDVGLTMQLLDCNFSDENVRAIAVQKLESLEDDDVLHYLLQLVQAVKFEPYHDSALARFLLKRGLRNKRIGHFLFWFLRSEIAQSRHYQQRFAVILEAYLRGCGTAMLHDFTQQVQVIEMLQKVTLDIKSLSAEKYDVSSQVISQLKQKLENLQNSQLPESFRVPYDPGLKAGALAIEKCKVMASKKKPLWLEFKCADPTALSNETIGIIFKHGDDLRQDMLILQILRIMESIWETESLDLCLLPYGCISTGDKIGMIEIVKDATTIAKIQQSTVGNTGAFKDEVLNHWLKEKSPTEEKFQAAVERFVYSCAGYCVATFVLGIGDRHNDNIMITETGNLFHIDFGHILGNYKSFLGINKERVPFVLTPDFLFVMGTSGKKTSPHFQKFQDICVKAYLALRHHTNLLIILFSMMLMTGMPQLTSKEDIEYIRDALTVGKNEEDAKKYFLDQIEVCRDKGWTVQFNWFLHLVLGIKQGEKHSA

Assay [2] addresses PI3Kδ (p110δ/p85α)(h) (Homo sapiens, UniProt O00329). Briefly: Assay for phosphatidylinositol 3-kinase delta (PI3Kδ) activity, PI3K-HTRF kit. Particulars: TR-FRET; enzyme 0.725 μg/ml, 10 μM PIP2, 10 μM ATP. (In general: In TR-FRET formats the signal depends on donor and acceptor labels being close together.)
Assay [3] has as its target PI3K β (p110β/p85α)(h) (Homo sapiens, UniProt P42338). Briefly: Assay for phosphatidylinositol 3-kinase beta (PI3Kβ) activity, PI3K-HTRF kit. To be noted: TR-FRET; enzyme 0.725 μg/ml, 10 μM PIP2, 10 μM ATP.
Assay [4] deals with PI3Kα (p110α/p85α)(h) (Homo sapiens, UniProt P42336). Briefly: Assay for phosphatidylinositol 3-kinase alpha (PI3Kα) activity, PI3K-HTRF kit. Particulars: TR-FRET; enzyme 0.3625 μg/ml, 10 μM PIP2, 10 μM ATP.
PI3Kα (p110α/p85α)(h), sequence (P42336 whole entry): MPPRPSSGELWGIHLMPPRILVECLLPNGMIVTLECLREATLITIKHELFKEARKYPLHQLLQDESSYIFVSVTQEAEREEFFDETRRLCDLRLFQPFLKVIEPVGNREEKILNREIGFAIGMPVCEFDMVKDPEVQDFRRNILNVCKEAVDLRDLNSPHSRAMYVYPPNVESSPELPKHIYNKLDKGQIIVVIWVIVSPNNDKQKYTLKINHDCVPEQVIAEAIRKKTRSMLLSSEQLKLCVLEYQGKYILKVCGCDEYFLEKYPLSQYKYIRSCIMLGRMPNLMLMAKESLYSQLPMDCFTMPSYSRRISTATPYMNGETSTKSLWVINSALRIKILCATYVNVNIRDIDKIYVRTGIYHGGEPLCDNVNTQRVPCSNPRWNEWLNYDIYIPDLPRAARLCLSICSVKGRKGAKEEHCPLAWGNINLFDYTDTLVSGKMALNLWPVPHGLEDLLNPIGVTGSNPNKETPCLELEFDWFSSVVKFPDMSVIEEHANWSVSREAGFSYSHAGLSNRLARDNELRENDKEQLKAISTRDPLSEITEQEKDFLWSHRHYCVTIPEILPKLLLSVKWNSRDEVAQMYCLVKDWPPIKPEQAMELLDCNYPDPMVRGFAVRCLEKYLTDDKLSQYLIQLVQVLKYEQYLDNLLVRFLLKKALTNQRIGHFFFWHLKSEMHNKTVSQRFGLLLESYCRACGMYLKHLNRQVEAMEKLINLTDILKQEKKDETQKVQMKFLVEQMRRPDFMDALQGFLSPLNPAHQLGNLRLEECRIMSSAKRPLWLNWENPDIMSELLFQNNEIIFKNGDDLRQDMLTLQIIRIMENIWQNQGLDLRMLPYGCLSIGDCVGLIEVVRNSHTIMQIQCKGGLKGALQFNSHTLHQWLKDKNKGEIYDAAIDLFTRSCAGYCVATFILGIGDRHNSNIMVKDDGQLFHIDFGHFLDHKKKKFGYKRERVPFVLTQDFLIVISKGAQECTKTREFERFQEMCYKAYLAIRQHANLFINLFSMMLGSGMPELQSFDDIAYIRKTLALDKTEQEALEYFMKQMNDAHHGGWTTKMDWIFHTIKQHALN
PI3Kα (p110α/p85α)(h), sequence (P27986 whole entry partner): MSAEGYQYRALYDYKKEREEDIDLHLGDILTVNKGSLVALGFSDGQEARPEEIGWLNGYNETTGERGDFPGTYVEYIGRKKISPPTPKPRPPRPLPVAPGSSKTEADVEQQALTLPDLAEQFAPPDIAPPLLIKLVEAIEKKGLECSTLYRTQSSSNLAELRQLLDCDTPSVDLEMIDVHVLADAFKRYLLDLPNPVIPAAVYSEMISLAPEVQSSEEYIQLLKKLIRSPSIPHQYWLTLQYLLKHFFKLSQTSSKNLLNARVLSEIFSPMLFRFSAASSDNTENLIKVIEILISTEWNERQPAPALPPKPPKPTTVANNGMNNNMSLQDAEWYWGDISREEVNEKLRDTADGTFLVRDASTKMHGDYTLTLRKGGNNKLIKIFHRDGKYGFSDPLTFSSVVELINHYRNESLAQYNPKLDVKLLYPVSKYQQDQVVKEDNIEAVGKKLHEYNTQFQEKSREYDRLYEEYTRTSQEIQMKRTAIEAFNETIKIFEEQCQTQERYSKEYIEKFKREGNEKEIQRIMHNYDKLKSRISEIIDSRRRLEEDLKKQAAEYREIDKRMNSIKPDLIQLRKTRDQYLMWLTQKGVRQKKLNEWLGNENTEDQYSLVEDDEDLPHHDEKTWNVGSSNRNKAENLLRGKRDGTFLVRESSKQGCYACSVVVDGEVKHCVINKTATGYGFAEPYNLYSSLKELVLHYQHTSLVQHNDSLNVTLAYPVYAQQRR

PI3Kδ (p110δ/p85α)(h), sequence (O00329 whole entry): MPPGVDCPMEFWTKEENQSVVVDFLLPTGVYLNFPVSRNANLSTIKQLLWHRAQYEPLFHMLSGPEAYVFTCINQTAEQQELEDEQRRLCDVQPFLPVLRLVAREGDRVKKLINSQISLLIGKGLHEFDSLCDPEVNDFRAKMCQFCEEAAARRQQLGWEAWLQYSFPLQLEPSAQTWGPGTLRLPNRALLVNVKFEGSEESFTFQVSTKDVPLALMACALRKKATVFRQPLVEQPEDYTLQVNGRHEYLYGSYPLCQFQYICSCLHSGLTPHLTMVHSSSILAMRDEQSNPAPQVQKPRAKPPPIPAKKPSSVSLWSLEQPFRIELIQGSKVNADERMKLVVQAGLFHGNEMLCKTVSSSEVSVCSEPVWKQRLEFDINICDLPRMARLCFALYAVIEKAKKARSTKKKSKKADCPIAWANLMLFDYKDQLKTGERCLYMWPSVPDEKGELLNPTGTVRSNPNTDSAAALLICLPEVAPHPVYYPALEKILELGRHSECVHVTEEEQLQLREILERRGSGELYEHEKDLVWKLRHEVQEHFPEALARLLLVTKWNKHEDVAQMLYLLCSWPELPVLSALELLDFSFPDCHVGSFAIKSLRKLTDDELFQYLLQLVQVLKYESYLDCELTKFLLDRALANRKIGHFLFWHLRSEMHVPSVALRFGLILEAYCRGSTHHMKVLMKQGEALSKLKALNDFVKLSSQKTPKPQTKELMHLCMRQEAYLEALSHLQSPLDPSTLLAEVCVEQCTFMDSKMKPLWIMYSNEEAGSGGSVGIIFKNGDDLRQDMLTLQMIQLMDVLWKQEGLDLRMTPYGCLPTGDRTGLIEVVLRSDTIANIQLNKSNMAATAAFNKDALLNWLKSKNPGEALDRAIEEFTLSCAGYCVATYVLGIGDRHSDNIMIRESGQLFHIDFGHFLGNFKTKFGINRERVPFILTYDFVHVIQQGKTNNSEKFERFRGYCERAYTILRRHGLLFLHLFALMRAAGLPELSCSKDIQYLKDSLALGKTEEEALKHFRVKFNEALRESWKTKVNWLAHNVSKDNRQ
PI3Kδ (p110δ/p85α)(h), sequence (P27986 whole entry partner): as the sequence (P27986 whole entry partner) above
PI3K β (p110β/p85α)(h), sequence (P42338 whole entry): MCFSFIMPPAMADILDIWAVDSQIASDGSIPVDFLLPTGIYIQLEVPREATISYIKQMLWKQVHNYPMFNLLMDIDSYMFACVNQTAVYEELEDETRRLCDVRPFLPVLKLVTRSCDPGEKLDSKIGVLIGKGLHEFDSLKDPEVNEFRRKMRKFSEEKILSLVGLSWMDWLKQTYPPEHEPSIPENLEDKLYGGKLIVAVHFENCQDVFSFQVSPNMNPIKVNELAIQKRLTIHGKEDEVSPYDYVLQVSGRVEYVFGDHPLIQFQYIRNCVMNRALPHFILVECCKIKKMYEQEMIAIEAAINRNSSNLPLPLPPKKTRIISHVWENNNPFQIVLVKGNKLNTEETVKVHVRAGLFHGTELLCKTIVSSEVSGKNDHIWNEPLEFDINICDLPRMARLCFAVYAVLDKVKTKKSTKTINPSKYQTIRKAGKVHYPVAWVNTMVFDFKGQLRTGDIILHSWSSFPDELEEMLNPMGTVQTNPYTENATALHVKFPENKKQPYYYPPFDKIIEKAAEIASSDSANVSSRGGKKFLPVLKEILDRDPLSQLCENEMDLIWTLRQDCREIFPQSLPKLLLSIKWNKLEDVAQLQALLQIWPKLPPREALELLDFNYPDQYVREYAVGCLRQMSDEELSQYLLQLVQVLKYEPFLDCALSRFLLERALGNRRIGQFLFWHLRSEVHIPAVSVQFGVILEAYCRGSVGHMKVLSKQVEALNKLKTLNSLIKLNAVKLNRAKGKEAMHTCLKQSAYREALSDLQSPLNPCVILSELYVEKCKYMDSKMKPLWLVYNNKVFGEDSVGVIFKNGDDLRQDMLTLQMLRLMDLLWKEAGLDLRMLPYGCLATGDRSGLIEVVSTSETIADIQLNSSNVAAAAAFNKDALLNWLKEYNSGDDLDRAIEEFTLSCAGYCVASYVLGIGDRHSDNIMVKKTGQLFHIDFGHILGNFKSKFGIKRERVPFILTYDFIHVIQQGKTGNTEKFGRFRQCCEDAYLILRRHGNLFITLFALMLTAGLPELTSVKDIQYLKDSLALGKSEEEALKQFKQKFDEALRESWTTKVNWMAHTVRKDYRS
PI3K β (p110β/p85α)(h), sequence (P27986 whole entry partner): as the sequence (P27986 whole entry partner) above

In general, IC50 refers to the concentration needed to halve the response being measured. A lower IC50 goes with greater potency. Turning to `CN(C)S(=O)(=O)c1ccc(-c2cncc3cc(/C=C4\SC(=S)NC4=O)oc23)cc1OC(F)(F)F` [Example 339, (Z)—N,N-Dimethyl-4-[2-{(4-oxo-2-thioxothiazolidin-5-ylidene)methyl}furo[3,2-c]pyridin-7-yl]-2-(trifluoromethoxy)benzenesulfonamide], the IC50 is 16 nM in assay [1], 188 nM in assay [2], 443 nM in assay [3] and 8 nM in assay [4].

In the case of `O=C1NC(=S)S/C1=C\c1cc2cncc(-c3cc(Cl)c(S(=O)(=O)N4CCOCC4)c(Cl)c3)c2o1` [Example 343, (Z)-5-([7-{3,5-Dichloro-4-(morpholinosulfonyl)phenyl}furo[3,2-c]pyridin-2-yl]methylene)-2-thioxothiazolidin-4-one], the IC50 is 4 nM in assay [1], 53 nM in assay [2], > 10000 nM in assay [3] and 19 nM in assay [4].

`CC(C)NS(=O)(=O)c1c(Cl)cc(-c2cncc3cc(/C=C4\SC(=S)NC4=O)oc23)cc1Cl` [Example 345, (Z)-2,6-Dichloro-N-isopropyl-4-[2-{(4-oxo-2-thioxothiazolidin-5-ylidene)methyl}furo[3,2-c]pyridin-7-yl]benzenesulfonamide]: the 50% inhibitory concentration (IC50) in assay [1] was 4 nM; in assay [2], 89 nM; in assay [3], 3860 nM; in assay [4], 11 nM.

Consider `COC(=O)c1cc(F)cc(-c2cncc3cc(/C=C4\SC(=S)NC4=O)oc23)c1` [Example 351, (Z)-Methyl 3-fluoro-5-[2-{(4-oxo-2-thioxothiazolidin-5-ylidene)methyl}furo[3,2-c]pyridin-7-yl]benzoate], for which the 50% inhibitory concentration (IC50) is 9 nM in assay [1], > 10000 nM in assay [2], > 10000 nM in assay [3] and 4 nM in assay [4].

For `Nc1ccc(-c2cncc3cc(/C=C4\SC(=S)NC4=O)oc23)cc1C(F)(F)F` [Example 361, (Z)-5-([7-{4-Amino-3-(trifluoromethyl)phenyl}furo[3,2-c]pyridin-2-yl]methylene)-2-thioxothiazolidin-4-one], the IC50 in assay [1] amounted to 10 nM; in assay [2], 924 nM; in assay [3], 1430 nM; in assay [4], 41 nM.

As to `COc1ccccc1NC(=O)c1cncc2cc(/C=C3\SC(=O)NC3=O)oc12` [Example 412, (Z)-2-{(2,4-Dioxothiazolidin-5-ylidene)methyl}-N-(2-methoxyphenyl)furo[3,2-c]pyridine-7-carboxamide], the IC50 in assay [1] turned out to be 182 nM; in assay [2] it was 205 nM; in assay [3], 869 nM; in assay [4], 17 nM.

As for `O=C1NC(=O)/C(=C/c2cc3cncc(C(=O)NC4CCCCC4)c3o2)S1` [Example 422, (Z)—N-Cyclohexyl-2-{(2,4-dioxothiazolidin-5-ylidene)methyl}furo[3,2-c]pyridine-7-carboxamide], the IC50 was found to be 204 nM in assay [1], 1140 nM in assay [2], 1230 nM in assay [3] and 31 nM in assay [4].

Consider `COc1ccc(NC(=O)c2cncc3cc(/C=C4\SC(=S)NC4=O)oc23)cc1` [Example 425, (Z)—N-(4-Methoxyphenyl)-2-{(4-oxo-2-thioxothiazolidin-5-ylidene)methyl}furo[3,2-c]pyridine-7-carboxamide], for which the IC50 in assay [1] was determined as 51 nM; in assay [2] it was 8330 nM; in assay [3], 1140 nM; in assay [4] it was 11 nM.

Consider `O=C1NC(=S)S/C1=C\c1cc2cncc(C(=O)NCc3ccc(Cl)cc3)c2o1` [Example 427, (Z)—N-(4-Chlorobenzyl)-2-{(4-oxo-2-thioxothiazolidin-5-ylidene)methyl}furo[3,2-c]pyridine-7-carboxamide], for which the IC50 in assay [1] is 134 nM; in assay [2], 1170 nM; in assay [3], 250 nM; in assay [4] it was 62 nM.
